Laboratory results from patent US20200338045A1, “ISOINDOLINE COMPOSITIONS AND METHODS FOR TREATING NEURODEGENERATIVE DISEASE” (priority 2017, published 2020).
Entries after “also recorded” stand apart in the source; their conditions may differ.

Legend:
[1] = Phase 1 MAD safety (adverse events, laboratory, ECG); type: in vivo, human
Method: In Part B, healthy young subjects in each cohort received the same dose once daily for 14 days after overnight fasting. Cohort dosing started at 280 mg, followed by 560 mg and 840 mg in subsequent cohorts. In each cohort, eight subjects received drug and two received placebo. A fourth cohort of healthy elderly subjects (≥65 years old) received a 560 mg dose vs. placebo daily for 14 days (seven active, two placebo).
Subjects were dosed in the morning with 240 mL of water after an 8-hour fast, and remained in a semi-reclined position for 1 hour and fasting for 2 hours post-administration, except for the fed cohort in Part A. Subjects in each MAD cohort were confined to the clinical facility from check-in on Day 0 until the pharmacokinetic sample was collected on Day 16, 48 hours after administration of the last dose on Day 14. Subjects returned to the clinical facility for follow-up visits on Days 24 and 35.
Safety variables, including incidence of adverse events (AEs), vital signs, clinical laboratory findings, 12-lead electrocardiographs (ECGs), physical examination, and affective and cognitive measures (Part B only), were summarized for all subjects who received study drug.

CYP isoenzymes = test: Drug interaction studies
[2] = tested on: Aβ oligomers bound to neuronal receptors; test: Aβ oligomer binding to / displacement from neuronal receptors; type: cell-based
[3] = MAD, 280 mg, Age ≤64 yrs (n = 8)
[4] = MAD, 560 mg, Age ≤64 yrs (n = 8)
[5] = MAD, 560 mg, Age ≥65 years (n = 7)
[6] = MAD, 840 mg, Age ≤64 yrs (n = 8)

For CC(C)(C)Oc1cc(CCC(C)(C)N2Cc3ccc(S(C)(=O)=O)cc3C2)ccc1O [CT1812], the vomiting incidence ([1]; 840 mg dose, two instances) was 25%, the “serious AE (SAE)” value ([1]; 840 mg, respiratory picornavirus infection deemed unrelated to study treatment) was “One serious AE” and the “tolerability, multiple dose” value ([1]; 280 to 840 mg QD 14 days (young), 560 mg (elderly)) was “safe and well tolerated”. The “ECG parameters or changes” value ([1]; MAD) was “No ECG parameters or changes were assessed as clinically significant”, the “Number of Subjects with at least one Treatment-Emergent AE: All TEAEs” value (“Number of Subjects … All TEAEs” below) [1, 3] was 7 and the “Number of Subjects with at least one Treatment-Emergent AE: Dizziness” value (“Number of Subjects … Dizziness” below) [1, 3] was 1. For the same compound, the “Number of Subjects with at least one Treatment-Emergent AE: Dyspepsia” value (“Number of Subjects … Dyspepsia” below) [1, 3] was 1, the “Number of Subjects with at least one Treatment-Emergent AE: Headache” value (“Number of Subjects … Headache” below) [1, 3] was 2 and the “Number of Subjects with at least one Treatment-Emergent AE: Nausea” value (shortened to “Number of Subjects … Nausea”) [1, 3] was 1. For the same compound, the “Number of Subjects with at least one Treatment-Emergent AE: Upper respiratory tract infection” value (shortened to “Number … Upper respiratory tract infection”) [1, 3] was 5, the “Subjects (%) with at least one Treatment-Emergent AE: All TEAEs” value (from here on “Subjects (%) … All TEAEs”) [1, 3] was “(88%)” and the “Subjects (%) with at least one Treatment-Emergent AE: Dizziness” value (shortened to “Subjects (%) … Dizziness”) [1, 3] was “(13%)”. The “Subjects (%) with at least one Treatment-Emergent AE: Dyspepsia” value (“Subjects (%) … Dyspepsia” below) [1, 3] was “(13%)”, the “Subjects (%) with at least one Treatment-Emergent AE: Headache” value (from here on “Subjects (%) … Headache”) [1, 3] was “(25%)” and the “Subjects (%) with at least one Treatment-Emergent AE: Nausea” value (from here on “Subjects (%) … Nausea”) [1, 3] was “(13%)”. The “Subjects (%) with at least one Treatment-Emergent AE: Upper respiratory tract infection” value (“Subjects (%) … Upper respiratory tract infection” below) [1, 3] was “(63%)”, the “Number of Subjects … All TEAEs” value [1, 4] was 7 and the “Number of Subjects with at least one Treatment-Emergent AE: Catheter site phlebitis” value (from here on “Number of Subjects … Catheter site phlebitis”) [1, 4] was 1. For the same compound, the “Number of Subjects … Dyspepsia” value [1, 4] was 1, the “Number of Subjects … Headache” value [1, 4] was 1 and the “Number of Subjects with at least one Treatment-Emergent AE: Procedural pain” value (shortened to “Number of Subjects … Procedural pain”) [1, 4] was 4. For the same compound, the “Number … Upper respiratory tract infection” value [1, 4] was 1, the “Subjects (%) … All TEAEs” value [1, 4] was “(88%)” and the “Subjects (%) with at least one Treatment-Emergent AE: Catheter site phlebitis” value (“Subjects (%) … Catheter site phlebitis” below) [1, 4] was “(13%)”. For the same compound, the “Subjects (%) … Dyspepsia” value [1, 4] was “(13%)”, the “Subjects (%) … Headache” value [1, 4] was “(13%)” and the “Subjects (%) with at least one Treatment-Emergent AE: Procedural pain” value (“Subjects (%) … Procedural pain” below) [1, 4] was “(50%)”. For the same compound, the “Subjects (%) … Upper respiratory tract infection” value [1, 4] was “(13%)”, the “Number of Subjects … All TEAEs” value [1, 5] was 5 and the “Number of Subjects with at least one Treatment-Emergent AE: Back pain” value (“Number of Subjects … Back pain” below) [1, 5] was 1. The “Number of Subjects … Dizziness” value [1, 5] was 1, the “Number of Subjects … Headache” value [1, 5] was 3 and the “Subjects (%) … All TEAEs” value [1, 5] was “(71%)”. For the same compound, the “Subjects (%) with at least one Treatment-Emergent AE: Back pain” value (“Subjects (%) … Back pain” below) [1, 5] was “(14%)”, the “Subjects (%) … Dizziness” value [1, 5] was “(14%)” and the “Subjects (%) … Headache” value [1, 5] was “(43%)”. For the same compound, the “Number of Subjects … All TEAEs” value [1, 6] was 6, the “Number of Subjects … Back pain” value [1, 6] was 1 and the “Number of Subjects … Catheter site phlebitis” value [1, 6] was 1. For the same compound, the “Number of Subjects … Dizziness” value [1, 6] was 1, the “Number of Subjects … Dyspepsia” value [1, 6] was 1 and the “Number of Subjects … Headache” value [1, 6] was 4. For the same compound, the “Number of Subjects … Nausea” value [1, 6] was 1, the “Number of Subjects … Procedural pain” value [1, 6] was 2 and the “Number … Upper respiratory tract infection” value [1, 6] was 2. For the same compound, the “Number of Subjects with at least one Treatment-Emergent AE: Vomiting” value [1, 6] was 2, the “Subjects (%) … All TEAEs” value [1, 6] was “(75%)” and the “Subjects (%) … Back pain” value [1, 6] was “(13%)”. For the same compound, the “Subjects (%) … Catheter site phlebitis” value [1, 6] was “(13%)”, the “Subjects (%) … Dizziness” value [1, 6] was “(13%)” and the “Subjects (%) … Dyspepsia” value [1, 6] was “(13%)”. For the same compound, the “Subjects (%) … Headache” value [1, 6] was “(50%)”, the “Subjects (%) … Nausea” value [1, 6] was “(13%)” and the “Subjects (%) … Procedural pain” value [1, 6] was “(25%)”. For the same compound, the “Subjects (%) … Upper respiratory tract infection” value [1, 6] was “(25%)”, the “Subjects (%) with at least one Treatment-Emergent AE: Vomiting” value [1, 6] was “(25%)” and the “Treatment-emergent AEs, % of subjects” value ([1]; MAD, CT1812 (of 31 subjects)) was 81%. The “Treatment-emergent AEs, number of subjects” value ([1]; MAD, CT1812 (of 31 subjects)) was 25, the “Number of Subjects … All TEAEs” value ([1]; MAD, Total Active (n = 31)) was 25 and the “Number of Subjects … Back pain” value ([1]; MAD, Total Active (n = 31)) was 2. For the same compound, the “Number of Subjects … Catheter site phlebitis” value ([1]; MAD, Total Active (n = 31)) was 2, the “Number of Subjects … Dizziness” value ([1]; MAD, Total Active (n = 31)) was 3 and the “Number of Subjects … Dyspepsia” value ([1]; MAD, Total Active (n = 31)) was 3. For the same compound, the “Number of Subjects … Headache” value ([1]; MAD, Total Active (n = 31)) was 10, the “Number of Subjects … Nausea” value ([1]; MAD, Total Active (n = 31)) was 2 and the “Number of Subjects … Procedural pain” value ([1]; MAD, Total Active (n = 31)) was 6. The “Number … Upper respiratory tract infection” value ([1]; MAD, Total Active (n = 31)) was 8, the “Number of Subjects with at least one Treatment-Emergent AE: Vomiting” value ([1]; MAD, Total Active (n = 31)) was 2 and the “Subjects (%) … All TEAEs” value ([1]; MAD, Total Active (n = 31)) was “(%81)”. For the same compound, the “Subjects (%) … Back pain” value ([1]; MAD, Total Active (n = 31)) was “(6%)”, the “Subjects (%) … Catheter site phlebitis” value ([1]; MAD, Total Active (n = 31)) was “(6%)” and the “Subjects (%) … Dizziness” value ([1]; MAD, Total Active (n = 31)) was “(10%)”. The “Subjects (%) … Dyspepsia” value ([1]; MAD, Total Active (n = 31)) was “(10%)”, the “Subjects (%) … Headache” value ([1]; MAD, Total Active (n = 31)) was “(32%)” and the “Subjects (%) … Nausea” value ([1]; MAD, Total Active (n = 31)) was “(6%)”. The “Subjects (%) … Procedural pain” value ([1]; MAD, Total Active (n = 31)) was “(19%)”, the “Subjects (%) … Upper respiratory tract infection” value ([1]; MAD, Total Active (n = 31)) was “(26%)” and the “Subjects (%) with at least one Treatment-Emergent AE: Vomiting” value ([1]; MAD, Total Active (n = 31)) was “(6%)”. The rash ([1]; MAD, improved after discontinuing CT1812) was “One subject developed a rash”, the “increase in liver function tests” value ([1]; four subjects in MAD study (including one on placebo)) was “below 3 × the upper limit of normal” and the “interactions with CYP isoenzymes” value (CYP isoenzymes) was “minor interactions”. The “displacement of Aβ oligomers from neuronal/synaptic receptors” value [2] was “displaces amyloid beta (Aβ) oligomers from neuronal receptors; also recorded: displace oligomers from synaptic receptor sites; also recorded: prevents and displaces binding of Aβ oligomers to neurons”.
